Source: patent US20230372381A1, “COMPOSITIONS AND METHODS UTILIZING PROTEIN INHIBITORS FOR […] INHIBITION AND TREATMENT OF SARS-CoV-2” (Rensselaer Polytechnic Institute, priority 2020, published 2023)
“Also recorded” adds a separate entry of the source. Where two headings read alike, the source gives them in different places.

Assays:
SARS-CoV-2 [1] = experiment: SARS-CoV-2 viral replication assay in Vero E6 cells; assay type: cell-based
SARS-CoV-2 [2] = experiment: Combination antiviral (synergy) assay with remdesivir; assay type: cell-based; conditions: for Synergy Score: combination with remdesivir, SynergyFinder, ZIP method; for interaction with remdesivir (additive or synergistic): inhibition of SARS-CoV-2 replication in combination with remdesivir
in vitro [3] = conditions: African green monkey
Method: (§1) Cytotoxicity was also performed using the MTT assay (Roche), according to the manufacturer's instructions. Cytotoxicity was performed in uninfected VeroE6 cells with same compound dilutions and concurrent with viral replication assay. All assays were performed in biologically independent triplicates.

in vitro [4] = conditions: human
SARS-CoV-2 PL^pro = SARS-CoV-2 PL^pro (Severe acute respiratory syndrome coronavirus 2, UniProt P0DTD1); experiment: PL^pro fluorescence proteolysis assay (zRLRGG/AMC substrate); assay type: biochemical; conditions: for Relative PL^pro Inhibition: estimated IC50 class
SARS-CoV-2 M^pro [5] = target: T1, SARS-CoV-2 M^pro (Severe acute respiratory syndrome coronavirus 2, UniProt P0DTD1); experiment: M^pro protease inhibition (FRET assay); assay type: biochemical; conditions: for Relative M^pro Inhibition: estimated IC50 class
SARS-CoV-2 [6] = experiment: microbe, parasite or virus in culture; assay type: cell-based
HEK 293T cells = experiment: Cytotoxicity in HEK 293T cells; conditions: cytotoxicity, HEK 293T Cells
Vero E6 cells = experiment: Cytotoxicity MTT assay in Vero E6 cells; conditions: cytotoxicity, Vero E6 Cells
Method: as §1

SARS-CoV-2 M^pro [7] = target: T1, SARS-CoV-2 M^pro; experiment: M^pro 1D 1H-NMR proteolysis assay; assay type: biochemical; conditions: 50 μM inhibitor
[8] = Cytotoxicity MTT assay in Vero E6 cells; conditions: African green monkey
Method: as §1

[9] = Cytotoxicity in HEK 293T cells; conditions: human
[10] = Severe acute respiratory syndrome coronavirus 2, Vero C1008, viral replication, Vero E6 Cells, read-out: IC50
[11] = Severe acute respiratory syndrome coronavirus 2, viral replication, HEK 293T Cells (hACE2-293T), read-out: IC50
[12] = Severe acute respiratory syndrome coronavirus 2, Vero C1008
[13] = Severe acute respiratory syndrome coronavirus 2, HEK-293T

SMILES	IC50 (SARS-CoV-2 [1]; [10]) [µM]	Synergy Score (SARS-CoV-2 [2])	interaction with remdesivir (additive or synergistic) (SARS-CoV-2 [2])	CC50 (in vitro [4]) [µM]	inhibition of PL^pro protease activity (words) (SARS-CoV-2 PL^pro)	Relative PL^pro Inhibition (SARS-CoV-2 PL^pro)	inhibition of M^pro activity (words) (SARS-CoV-2 M^pro [5])	Relative M^pro Inhibition (SARS-CoV-2 M^pro [5])	IC50 (SARS-CoV-2 [6]; [11]) [µM]	CC50 (Vero E6 cells) [µM]	M^pro inhibition in the NMR assay (SARS-CoV-2 M^pro [7])	also measured
Cc1cnc(C(=O)N[C@H]2CCCCC/C=C\[C@@H]3C[C@@]3(C(=O)NS(=O)(=O)C3CC3)NC(=O)[C@@H]3C[C@@H](Oc4nc5ccccc5c5ccccc45)CN3C2=O)cn1 [PAR, paritaprevir]	6	+17.3	synergistic	> 100	did inhibit PL^pro protease activity	moderate (moderate to an estimated IC50 in the range 20-50 μM)	not M^pro	none (none indicates no observed inhibition of protease activity at drug concentrations of 50 μM)	0.55			interaction with remdesivir (additive or synergistic) (SARS-CoV-2 [2]; listed as paritaprevir): synergized with remdesivir; CC50 (in vitro [3]): > 100 µM
C=C[C@@H]1C[C@]1(NC(=O)[C@@H]1C[C@@H]2CN1C(=O)[C@H](C(C)(C)C)NC(=O)O[C@@H]1C[C@H]1CCCCCc1nc3ccc(OC)cc3nc1O2)C(=O)NS(=O)(=O)C1CC1.O [GRZ, grazoprevir]		+25.0	synergistic		did inhibit PL^pro protease activity	moderate (moderate to an estimated IC50 in the range 20-50 μM)	moderately inhibit; also recorded: inhibited both M^pro and PL^pro	moderate (moderate to an estimated IC50 in the range 20-50 μM)		> 50	moderate inhibitors of M^pro	CC50 (HEK 293T cells): > 50 µM; IC50 (SARS-CoV-2 [1]; viral replication, Vero E6 Cells, read-out: IC50): 10.8 µM; interaction with remdesivir (additive or synergistic) (SARS-CoV-2 [2]; listed as grazoprevir): synergized with remdesivir; IC50 (SARS-CoV-2 [6]; viral replication, HEK 293T Cells (hACE2-293T), read-out: IC50): 16.7 µM
CC(C)(C)NC(=O)N[C@H](C(=O)N1C[C@H]2[C@@H]([C@H]1C(=O)NC(CC1CCC1)C(=O)C(N)=O)C2(C)C)C(C)(C)C (stereo partly drawn) [BOC, boceprevir]	19.6	−7.6		> 50					5.4			CC50 (in vitro [3]): > 50 µM
CCCC[C@H](NC(=O)[C@@H]1[C@@H]2[C@H](CN1C(=O)[C@@H](NC(=O)NC1(CS(=O)(=O)C(C)(C)C)CCCCC1)C(C)(C)C)C2(C)C)C(=O)C(=O)NC1CC1 [NAR, narlaprevir]		−3.6										CC50 (HEK 293T cells): 72 µM; IC50 (SARS-CoV-2 [1]; [12]): 7.7 µM; CC50 [8]: > 20 µM; IC50 (SARS-CoV-2 [6]; [13]): 15 µM
COc1ccc2c(O[C@@H]3C[C@H]4C(=O)N[C@]5(C(=O)NS(=O)(=O)C6CC6)C[C@H]5/C=C\CCCCN(C)C(=O)[C@@H]4C3)cc(-c3nc(C(C)C)cs3)nc2c1C [SIM, simeprevir]	4.2	+30.2	synergistic	> 50	did inhibit PL^pro protease activity	strong (Strong inhibition corresponds to an estimated IC50 < about 20 μM)	moderately inhibit; also recorded: inhibited both M^pro and PL^pro	moderate (moderate to an estimated IC50 in the range 20-50 μM)	2.3	2.1	moderate inhibitors of M^pro	interaction with remdesivir (additive or synergistic) (SARS-CoV-2 [2]; listed as simeprevir): synergized with remdesivir
CC(=O)Nc1ccc(C)c(C(=O)N[C@H](C)c2cccc3ccccc23)c1 [Compound 6]			synergy with remdesivir		specifically inhibits PL^pro		not M^pro					
CC[C@@H]1C[C@]1(NC(=O)[C@@H]1C[C@@H]2CN1C(=O)[C@H](C(C)(C)C)NC(=O)OCC(C)(C)CCCCc1cccc3c1CN(C3)C(=O)O2)C(=O)NS(=O)(=O)C1CC1 [VAN, vaniprevir]		+10.9	synergistic			strong (Strong inhibition corresponds to an estimated IC50 < about 20 μM)		strong (Strong inhibition corresponds to an estimated IC50 < about 20 μM)		4.3	inhibitory activity comparable to telaprevir	CC50 [9]: > 50 µM; IC50 (SARS-CoV-2 [1]; [12]): 6.2 µM; interaction with remdesivir (additive or synergistic) (SARS-CoV-2 [2]; listed as vaniprevir): synergized with remdesivir; inhibition of PL^pro protease activity (words) (SARS-CoV-2 PL^pro; listed as Vaniprevir): good inhibitor of both M^pro and PL^pro; inhibition of PL^pro protease activity (words) (SARS-CoV-2 PL^pro; listed as vaniprevir): did inhibit PL^pro protease activity; inhibition of M^pro activity (words) (SARS-CoV-2 M^pro [5]; listed as Vaniprevir): good inhibitor of both M^pro and PL^pro; inhibition of M^pro activity (words) (SARS-CoV-2 M^pro [5]; listed as vaniprevir): inhibited both M^pro and PL^pro; IC50 (SARS-CoV-2 [6]; [13]): 3 µM
C=C[C@@H]1C[C@]1(NC(=O)[C@@H]1C[C@@H](Oc2ncc(OC)c3ccc(Cl)cc23)CN1C(=O)[C@@H](NC(=O)OC(C)(C)C)C(C)(C)C)C(=O)NS(=O)(=O)C1CC1 [asunaprevir]							moderately inhibit					
